Series [1] relates to Escherichia coli ATCC 25922. The settings on record: ATCC 25922, 5 h. Here is the method:
(§1) The three bacterial strains: Escherichia coli ATCC 25922, Pseudomonas aeruginosa ATCC 27853 Staphylococcus aureus ATCC 29213 as well as the fungal strain Candida albicans ATCC 90028 derived from clinical wound infections were obtained from the Department of Clinical Bacteriology at Lund University Hospital.
(§2) Antimicrobial activities of the peptides were evaluated using the two-step microdilution assay ([Strömstedt et al., 2017]), which is designed for testing AMPs without activity-inhibiting components. Briefly, the microbial suspension was washed twice with 10 mM Tris buffer (set to pH 7.4 at 37°C). 96-well plates (U-shaped, untreated polystyrene) were prepared with peptide 2-fold serial dilutions in Tris buffer. The culture density was quantified by OD600, diluted in Tris buffer and 50,000 cells aliquoted to each well in the 96-well plate to a final 100 μl volume. After 5 h of aerobic incubation at 37°C, 5 μl of 20% TSB medium was added to each well (resulting in 1% TSB) and the plates were re-incubated. Growth-inhibition was monitored when controls produced pellet sizes of 2 mm in diameter (close to growth saturation), which equates to 5, 8, 10, and 12 h for E. coli, S. aureus, P. aeruginosa, and C. albicans, respectively. […] The MIC-values in Table 1, are medians from triplicate experiments, while the data presented in the Figure 2 are the same values relative to that of KR-12.

For series [2], the system named is Candida albicans ATCC 90028. The settings on record: ATCC 90028, 5 h. Here is the method:
as §1, §2

The nature of series [3]: Liposome leakage assay, bacterial liposomes. The arrangement: species or system E. coli.
Description: Membrane disruption was assayed by liposome leakage. […] E. coli and Saccharomyces cerevisiae membrane lipids were reconstituted into large unilamellar vesicles, trapping a self-quenching fluorescent marker.
Polar lipid extract from E. coli, and S. cerevisiae (Avanti Polar Lipids, Alabaster, AL-US) were used, the latter supplemented with ergosterol (Sigma-Aldrich) at a 7:3 molar ratio. In brief, dry lipid films were deposited on round-bottom flask walls and re-suspended in Tris buffer containing of 100 mM 5(6)-carboxyfluorescein. Multilamellar structures and polydispersity were reduced by repeated extrusion through 100-nm polycarbonate membranes. Un-trapped carboxyfluorescein was removed by gel separation. Membrane permeability was measured by monitoring carboxyfluorescein efflux from the liposomes to the external low concentration environment, resulting in loss of self-quenching and an increased fluorescence signal. The leakage experiments were performed on a 96-well plate format. […] EC50-values are calculated from sigmoidal dose-response curves of leakage percentage as a function of the peptide concentration (log10).
Series [4] deals with Staphylococcus aureus ATCC 29213. On the set-up: method as in Gunasekera et al., 2018. The settings on record: ref Gunasekera et al., 2018; cited from earlier work.
The subject of the next series is Escherichia coli. On the set-up: method as in Wang, 2008. The conditions noted are these: ref Wang, 2008; cited from earlier work.
Series [5] concerns Candida albicans ATCC 90028. The arrangement: method as in Gunasekera et al., 2018. The settings on record: ref Gunasekera et al., 2018; cited from earlier work.
The test system of another series is Human type A RBCs. Description: Hemolysis assay. The class given is cell-based. The procedure:
Peptides were dissolved in water and serially diluted in PBS to give 20 μl test solutions in a 96-well U-bottomed microtiter plate (Nunc). Human type A RBCs (red blood cells) were washed with PBS and centrifuged at 1500 g for 60 s in a microcentrifuge several times until a clear supernatant was obtained. A 0.25% suspension of washed RBCs in PBS (100 μl) was added to the peptide solutions. The plate was incubated at 37°C for 1 h and centrifuged at 150 g for 5 min. Aliquots of 100 μl were transferred to a 96-well flat-bottomed microtiter plate (Falcon) and the absorbance was measured at 405 nm with an automatic Multiskan Ascent plate reader (Labsystems). The amount of hemolysis was calculated as the percentage of maximum lysis (1% Triton X-100 control) after adjusting for minimum lysis (PBS control). Synthetic melittin (Sigma) was used for comparison. The hemolytic dose necessary to lyse 50% of the RBCs (HD50) was calculated using the regression constant from the linear portion of the hemolytic titration curve (GraphPad Prism software).

For series [6], the system named is Escherichia coli ATCC 25922. The arrangement: method as in Gunasekera et al., 2018. The settings on record: ref Gunasekera et al., 2018; cited from earlier work.
The test system of series [7] is human lymphoma cell line U-937 GTB. The conditions noted are these: cited from earlier work.
Series [8] relates to Pseudomonas aeruginosa ATCC 27853. On the set-up: method as in Gunasekera et al., 2018. The settings on record: ref Gunasekera et al., 2018; cited from earlier work.
The nature of series [9]: Liposome leakage assay, fungal liposomes. On the set-up: species or system S. cerevisiae. The conditions noted are these: 50% leakage, 45 min incubation, 37°C; read-out: EC50 fung. (liposome leakage). Here is the method:
FIGURE 3 Peptide induced liposome leakage. Bacterial liposomes based on E. coli polar lipid extract (A,B), and fungal liposomes of S. cerevisiae polar lipid extract and ergosterol (7:3) (C), were monitored for fluorescent marker leakage over 45 min of incubation with peptides. (A) Compares membrane disrupting efficacy at the 45 min mark for the parent peptide, monomer, lysine substitutions and dimerization, (B) effects of linker length, monomer directionality and backbone cyclization, (C) effect on KR-12 directionality and dimerization on a fungal liposome system. […] Results are means from triplicate experiments with standard deviations.
The liposome production and the liposome leakage assay were performed similar to what has previously been described ([Strömstedt et al., 2016]). […] Membrane permeability was measured by monitoring carboxyfluorescein efflux from the liposomes to the external low concentration environment, resulting in loss of self-quenching and an increased fluorescence signal. […] The effect of each peptide concentration on liposome integrity was monitored for 45 min, at which point the leakage had largely subsided. […] EC50-values are calculated from sigmoidal dose-response curves of leakage percentage as a function of the peptide concentration (log10).

Where no end group is shown, it is not given here. Bounds are passed on as bounds.

In general, EC50 refers to the midpoint of the concentration-response curve. The term IC50 denotes the point on the concentration scale where inhibition reaches its midpoint. With KRIVQRIKDFLR [KR-12], the MIC bact. in [1] is 2.5 µM. This sequence also gave an MIC fung. in [2] of 10 µM. Besides, the EC50 was about 25 µM in series [3] (50% leakage, 45 min incubation, 37°C, read-out: EC50 bact. (liposome leakage)) and 0.95 µM in [9]. In addition, in series [3] (E. coli liposomes), the “fold higher concentration than LL-37 required to reach 50% leakage” value was 38 fold. Also, the “MIC against Staphylococcus aureus” value in series [4] was 10 µM. Moreover, the “MIC against Escherichia coli” value in the series on Escherichia coli was 40 µM; in series [6] it was 2.5 µM. Also, the “MIC against Candida albicans” value in [5] is 10 µM. The “HC50 (hemolysis)” value in the series with Human type A RBCs was over 80 µM. Moreover, the “loss of cell viability” value in series [7] (at the maximum concentration of 80 μM, ref Gunasekera et al., 2018) is reported as 13%. Moreover, the IC50 in [7] was over 80 µM. Also, the “MIC against Pseudomonas aeruginosa” value in series [8] was 10 µM.

The values are drawn from article PMC7046553, “Backbone Cyclization and Dimerization of LL-37-Derived Peptides Enhance Antimicrobial Activity and Proteolytic Stability” (Frontiers in Microbiology, 2020).
